Four molecules from ChEMBL document CHEMBL5727340, “Substituted nucleoside derivatives useful as anticancer agents” (2019) can be followed below.

The nature of the experiment: PRMT5 assay: Compounds were solubilized in DMSO and serially diluted, using 3-fold dilutions, into 100% DMSO at a concentration 50-fold greater than the desired assay concentration. Following dilution, 1 ul was added to an empty 96-well microtiter plate. PRMT5/MEP50 protein complex was combined with H4(1-21) peptide ([…]) in PRMT5 assay buffer (50 mM Tris pH 8.5, 50 mM NaCl, 5 mM MgCl2, 1 mM EDTA, 1 mM TCEP) and 44 ul was added to the microtiter plate containing compound. S-Adenosyl-L-methionine (SAM) was prepared by combining 3H labelled SAM with unlabelled SAM in PRMT5 assay buffer such that the final SAM concentration was 10 uM and the specific activity was 0.2 uCi/ul. The reaction was initiated by adding 5 ul of SAM stock to the microtiter plate. The final reaction conditions were 10 nM PRMT5/MEP50 complex, 200 nM peptide and 1 uM SAM. Following a 25 minute incubation at room temperature, the reaction was stopped with the addition of 100 uL of 20% TCA. The 3H-peptide product was captured using a 96-well filter plate (MSIPN4B, Millipore) and washed 5 times with PBS buffer. Scintillation fluid (100 ul) was added to the dried filter plate and counted in a liquid scintillation counter. IC50 values were determined by fitting the data to the standard 4-parameter dose response equation using Pfizer proprietary software.

Structures are written as SMILES.

As a reminder, the IC50 is the concentration needed to halve the response being measured. `Cc1ncnc2c1ccn2[C@@H]1O[C@H]([C@H](O)c2ccc3ccn(C)c3c2)[C@@H](O)[C@H]1O`: the IC50 was 10 nM.
As for `Cc1ncnc2c1ccn2[C@@H]1O[C@H]([C@@H](O)c2cccc(F)c2)[C@@H](O)[C@H]1O`, the figure is 2640 nM; as for `Cc1ncnc2c1ccn2[C@@H]1O[C@@H](C(C)O)[C@H]2OC(C)(C)O[C@H]21` (some centres undefined), 1730 nM.
On to `Cc1ncnc2c1ccn2[C@@H]1O[C@@H](C(C)(C)O)[C@H]2OC(C)(C)O[C@H]21`, for which the half-maximal inhibitory concentration (IC50) was determined as 3240 nM.
